As a reminder, the MIC is the smallest concentration in the dilution series that meets the test's criterion for growth inhibition. The low end stands for greater potency, the high end for weaker potency.

Experimental findings from DBAASP are described below.

Some test systems named below: Klebsiella pneumoniae; Escherichia coli; Listeria monocytogenes; Aeromonas hydrophila; Vibrio fluvialis; Vibrio parahaemolyticus; Vibrio alginolyticus; Streptococcus pyogenes; Staphylococcus aureus.
Common to all, as to test: ≥ marks a high value that may be exact or a test limit, other limits are often not marked, values filed in µg/mL are converted to µM
For assay [1], the system named is Staphylococcus aureus ATCC 6538.
Assay [2] concerns Salmonella enterica subsp. enterica serovar Typhimurium ATCC 14028.
Assay [3] has as its system Pseudomonas aeruginosa ATCC 27853.
The test system of assay [4] is Bacillus cereus ATCC 10876.
Assay [5] deals with Streptococcus agalactiae ATCC 27956.
In assay [6] the test system is Staphylococcus aureus ATCC 29213.
Assay [7] relates to Streptococcus iniae KCTC 3657.
Assay [8] has as its system Enterococcus faecalis ATCC 29212.
Assay [9] relates to Streptococcus dysgalactiae subsp. dysgalactiae ATCC 27957.
For assay [10], the system named is Escherichia coli ATCC 25922.
The subject of assay [11] is Streptococcus equi subsp. zooepidemicus ATCC 43079.
The subject of assay [12] is Escherichia coli BNCC 133264.
The test system of assay [13] is Pseudomonas aeruginosa BNCC 125486.
The subject of assay [14] is Staphylococcus aureus ATCC 25923.
The subject of assay [15] is Staphylococcus aureus BNCC 186335.

≈ marks a conversion by molar mass, not a printed value.

As for `CC[C@H](C)[C@H](NC(=O)[C@H](CCCN=C(N)N)NC(=O)[C@H](Cc1c[nH]c2ccccc12)NC(=O)CNC(=O)[C@H](Cc1ccc(O)cc1)NC(=O)[C@H](CCCN=C(N)N)NC(=O)[C@H](CCCN=C(N)N)NC(=O)[C@H](C)NC(=O)[C@H](Cc1ccccc1)NC(=O)[C@H](CCCN=C(N)N)NC(=O)CNC(=O)[C@H](C)NC(=O)CNC(=O)[C@H](CCCN=C(N)N)NC(=O)[C@@H](NC(=O)[C@H](Cc1ccccc1)NC(=O)[C@H](CCCN=C(N)N)NC(=O)[C@H](CCCN=C(N)N)NC(=O)[C@H](Cc1c[nH]c2ccccc12)NC(=O)[C@H](CCCN=C(N)N)NC(=O)[C@H](CO)NC(=O)[C@H](CCCN=C(N)N)NC(=O)[C@@H](N)[C@@H](C)O)[C@@H](C)CC)C(=O)N[C@@H](C)C(=O)O` [TRSRWRRFIRGAGRFARRYGWRIA], the MIC in assay [1] was determined as 1.3 µM (≈ 3.97 µg/mL); in [2] it was 0.164 µM (≈ 0.5 µg/mL); in assay [3] it was 0.983 µM (≈ 3 µg/mL); against Klebsiella pneumoniae, 0.387 µM (≈ 1.18 µg/mL); in [4], 3.28 µM (≈ 10 µg/mL); in assay [5], 13.1 µM (≈ 40 µg/mL). Further, the MIC against Escherichia coli is 1.54 µM (≈ 4.7 µg/mL); in assay [6] it was more than 41.9 µM; in [7], 10.5 µM (≈ 32 µg/mL); in assay [8], 13.1 µM (≈ 40 µg/mL); in assay [9] it was 13.1 µM (≈ 40 µg/mL); in assay [10], 0.328 µM (≈ 1 µg/mL). In addition, the MIC in assay [11] was 6.6 µM (≈ 20.1 µg/mL).

In the case of `CC[C@H](C)[C@H](NC(=O)[C@H](CCCCN)NC(=O)[C@H](CC(N)=O)NC(=O)[C@H](CC(C)C)NC(=O)[C@@H](NC(=O)[C@H](CCCCN)NC(=O)[C@@H]1CCCN1)[C@@H](C)CC)C(=O)N[C@@H](CC(C)C)C(=O)NCC(=O)N[C@@H](CCCCN)C(=O)N[C@H](C(=O)N[C@@H](CC(C)C)C(=O)N[C@@H](CCCN=C(N)N)C(=O)N[C@@H](CC(C)C)C(=O)N[C@@H](C)C(=O)N[C@@H](C)C(=O)N[C@@H](C)C(=O)N[C@@H](Cc1ccccc1)C(=O)N[C@@H](CCCCN)C(N)=O)[C@@H](C)CC` [PKILNKILGKILRLAAAFK], the MIC against Listeria monocytogenes was found to be 1.9 µM (≈ 4 µg/mL); in [3], 1.5 µM (≈ 3.16 µg/mL); in the assay with Klebsiella pneumoniae it was 6.25 µM (≈ 13.2 µg/mL); in assay [12], 1.9 µM (≈ 4 µg/mL); in [13], 1.9 µM (≈ 4 µg/mL); in assay [14] it was 3 µM (≈ 6.32 µg/mL). In addition, the MIC against Escherichia coli is 1.9 µM (≈ 4 µg/mL); in assay [10], 1.5 µM (≈ 3.16 µg/mL); in assay [15], 0.949 µM (≈ 2 µg/mL).

Consider `CC[C@H](C)[C@H](NC(=O)[C@H](CCCCN)NC(=O)[C@H](Cc1cnc[nH]1)NC(=O)[C@H](CC(C)C)NC(=O)[C@H](CC(C)C)NC(=O)[C@H](Cc1ccccc1)NC(=O)[C@H](CC(N)=O)NC(=O)[C@@H](N)C(C)C)C(=O)N[C@@H](Cc1ccc(O)cc1)C(=O)NCC(=O)N[C@@H](CC(N)=O)C(=O)N[C@H](C(=O)N[C@@H](CCCN=C(N)N)C(=O)N[C@@H](Cc1ccc(O)cc1)C(=O)N[C@@H](CO)C(=O)O)[C@@H](C)CC` [VNFLLHKIYGNIRYS], for which the MIC is 2.12 µM (≈ 3.9 µg/mL) with Aeromonas hydrophila; not below 34 µM against Vibrio fluvialis; 17 µM (≈ 31.2 µg/mL) against Vibrio parahaemolyticus; 2.12 µM (≈ 3.9 µg/mL) against Vibrio alginolyticus; 2.12 µM (≈ 3.9 µg/mL) with Escherichia coli; not below 34 µM with Streptococcus pyogenes. The compound also gave an MIC against Staphylococcus aureus of 34 µM (≈ 62.5 µg/mL).
